Values of other authors in US20130137664A1, “LOW-DOSED SOLID ORAL DOSAGE FORMS FOR HRT” (BAYER INTELLECTUAL PROPERTY GMBH, priority 2010, published 2013).

Tested on: moderate or severe hot flushes in menopausal women
Details: 2 mg E2

C[C@]12CC[C@@H]3c4ccc(O)cc4CC[C@H]3[C@@H]1CC[C@@H]2O [E2, estradiol]
estrogen-related adverse events: increased
